Source: patent US7507727B2, “Substituted quinobenzoxazine analogs and methods of using thereof” (Cylene Pharmaceuticals, Inc., priority 2003, dated 2009)

molecular target: c-Myc template DNA (c-myc quadruplex); experiment: Quadruplex binding / stop assay (Taq polymerase arrest, capillary electrophoresis); conditions: read-out: Stop Data c-Myc μM; concentration at which 50% of the DNA was arrested (arrested:full-length 1:1)

IC50, 1.75 µM:
CC(C)(C)OC(=O)N[C@H]1CCN(c2c(F)cc3c(=O)c(C(=O)NCCN4CCCC4)cn4c5cc6c(cc5oc2c34)c(=O)c2ccccc26)C1 [compound 202]
O=C(NCCCN1CCOCC1)c1cn2c3cc4c(cc3oc3c(NCCCN5CCOCC5)c(F)cc(c1=O)c32)c(=O)c1ccccc14 [compound 203]
CC(C)(C)OC(=O)N[C@H]1CCN(c2c(F)cc3c(=O)c(C(=O)NCCCN4CCOCC4)cn4c5cc6c(cc5oc2c34)c(=O)c2ccccc26)C1 [compound 204]
O=C(NCCCN1CCOCC1)c1cn2c3cc4c(cc3oc3c(NCCN5CCOCC5)c(F)cc(c1=O)c32)c(=O)c1ccccc14 [compound 205]
CN1CCCC1CCNc1c(F)cc2c(=O)c(C(=O)N3CC[C@H](NC(=O)OC(C)(C)C)C3)cn3c4cc5c(cc4oc1c23)c(=O)c1ccccc15 (stereo partly shown) [compound 206]
CN(C)CCCCNc1c(F)cc2c(=O)c(C(=O)N3CC[C@H](NC(=O)OC(C)(C)C)C3)cn3c4cc5c(cc4oc1c23)c(=O)c1ccccc15 [compound 207]
CC(C)(C)OC(=O)N[C@H]1CCN(c2c(F)cc3c(=O)c(C(=O)NCCN4CCOCC4)cn4c5cc6c(cc5oc2c34)c(=O)c2ccccc26)C1 [compound 208]
CN1CCN(CCCNC(=O)c2cn3c4cc5c(cc4oc4c(NCCCN6CCOCC6)c(F)cc(c2=O)c43)c(=O)c2ccccc25)CC1 [compound 209]
CC(C)(C)OC(=O)N[C@@H]1CCN(c2c(F)cc3c(=O)c(C(=O)NCCCCN)cn4c3c2Oc2cc3ccccc3cc2-4)C1 [compound 210]
CN(C)/C=N/CCCNC(=O)c1cn2c3c(c(N4CC[C@@H](NC(=O)OC(C)(C)C)C4)c(F)cc3c1=O)Oc1cc3ccccc3cc1-2 [compound 211]
CN(C)/C=N/CCCCNC(=O)c1cn2c3c(c(N4CC[C@@H](NC(=O)OC(C)(C)C)C4)c(F)cc3c1=O)Oc1cc3ccccc3cc1-2 [compound 212]
CN1CCCC1CCNC(=O)c1cn2c3c(c(N4CCC(NC(=O)OC(C)(C)C)C4)c(F)cc3c1=O)Oc1cc3ccccc3cc1-2 (stereo not shown) [compound 213]
N[C@H]1CCN(C(=O)c2cn3c4cc5c(cc4oc4c(NCCN6CCCC6)c(F)cc(c2=O)c43)c(=O)c2ccccc25)C1 [compound 214]
CN1CCCC1CCNc1c(F)cc2c(=O)c(C(=O)N3CC[C@H](N)C3)cn3c4cc5c(cc4oc1c23)c(=O)c1ccccc15 (stereo partly shown) [compound 215]
N[C@H]1CCN(C(=O)c2cn3c4cc5c(cc4oc4c(NCCCN6CCOCC6)c(F)cc(c2=O)c43)c(=O)c2ccccc25)C1 [compound 216]
CN(C)CCCCNc1c(F)cc2c(=O)c(C(=O)N3CC[C@H](N)C3)cn3c4cc5c(cc4oc1c23)c(=O)c1ccccc15 [compound 217]
Nc1c(F)c(NCCCN2CCOCC2)c2c3c1c(=O)c(C(=O)NCCCN1CCOCC1)cn3-c1cc3ccccc3cc1O2 [compound 218]
CC(C)(C)OC(=O)NC1CCN(C(=O)c2cn3c4c(c(NCCCN5CCOCC5)c(F)c(N)c4c2=O)Oc2cc4ccccc4cc2-3)C1 (stereo not shown) [compound 219]
CN(C)CCCCNC(=O)c1cn2c3c(c(NCCCN4CCOCC4)c(F)c(N)c3c1=O)Oc1cc3ccccc3cc1-2 [compound 220]
Nc1c(F)c(NCCCN2CCOCC2)c2c3c1c(=O)c(C(=O)NCCN1CCOCC1)cn3-c1cc3ccccc3cc1O2 [compound 221]
Nc1c(F)c(NCCCN2CCOCC2)c2c3c1c(=O)c(C(=O)N1CCOCC1)cn3-c1cc3ccccc3cc1O2 [compound 222]
CN1CCN(CCCNC(=O)c2cn3c4c(c(NCCCN5CCOCC5)c(F)c(N)c4c2=O)Oc2cc4ccccc4cc2-3)CC1 [compound 223]
CC(C)(C)OC(=O)NC1CCN(c2c(F)c(N)c3c(=O)c(C(=O)NCCN4CCCC4)cn4c3c2Oc2cc3ccccc3cc2-4)C1 (stereo not shown) [compound 224]
CN1CCCC1CCNC(=O)c1cn2c3c(c(N4CCC(NC(=O)OC(C)(C)C)C4)c(F)c(N)c3c1=O)Oc1cc3ccccc3cc1-2 (stereo not shown) [compound 225]
CC(C)(C)OC(=O)NC1CCN(c2c(F)c(N)c3c(=O)c(C(=O)NCCCN4CCOCC4)cn4c3c2Oc2cc3ccccc3cc2-4)C1 (stereo not shown) [compound 226]
CC(C)(C)OC(=O)NC1CCN(C(=O)c2cn3c4c(c(N5CCC(NC(=O)OC(C)(C)C)C5)c(F)c(N)c4c2=O)Oc2cc4ccccc4cc2-3)C1 (stereo not shown) [compound 227]
CN(C)CCCCNC(=O)c1cn2c3c(c(N4CCC(NC(=O)OC(C)(C)C)C4)c(F)c(N)c3c1=O)Oc1cc3ccccc3cc1-2 (stereo not shown) [compound 228]
CC(C)(C)OC(=O)NC1CCN(c2c(F)c(N)c3c(=O)c(C(=O)NCCN4CCOCC4)cn4c3c2Oc2cc3ccccc3cc2-4)C1 (stereo not shown) [compound 229]
CC(C)(C)OC(=O)NC1CCN(c2c(F)c(N)c3c(=O)c(C(=O)N4CCOCC4)cn4c3c2Oc2cc3ccccc3cc2-4)C1 (stereo not shown) [compound 230]
CN1CCN(CCCNC(=O)c2cn3c4c(c(N5CCC(NC(=O)OC(C)(C)C)C5)c(F)c(N)c4c2=O)Oc2cc4ccccc4cc2-3)CC1 (stereo not shown) [compound 231]
Nc1c(F)c(NCCCN2CCOCC2)c2c3c1c(=O)c(C(=O)N1CCC(N)C1)cn3-c1cc3ccccc3cc1O2 (stereo not shown) [compound 232]
Nc1c(F)c(N2CCC(N)C2)c2c3c1c(=O)c(C(=O)NCCN1CCCC1)cn3-c1cc3ccccc3cc1O2 (stereo not shown) [compound 233]
CN1CCCC1CCNC(=O)c1cn2c3c(c(N4CCC(N)C4)c(F)c(N)c3c1=O)Oc1cc3ccccc3cc1-2 (stereo not shown) [compound 234]
Nc1c(F)c(N2CCC(N)C2)c2c3c1c(=O)c(C(=O)NCCCN1CCOCC1)cn3-c1cc3ccccc3cc1O2 (stereo not shown) [compound 235]
Nc1c(F)c(N2CCC(N)C2)c2c3c1c(=O)c(C(=O)N1CCC(N)C1)cn3-c1cc3ccccc3cc1O2 (stereo not shown) [compound 236]
CN(C)CCCCNC(=O)c1cn2c3c(c(N4CCC(N)C4)c(F)c(N)c3c1=O)Oc1cc3ccccc3cc1-2 (stereo not shown) [compound 237]
Nc1c(F)c(N2CCC(N)C2)c2c3c1c(=O)c(C(=O)NCCN1CCOCC1)cn3-c1cc3ccccc3cc1O2 (stereo not shown) [compound 238]
Nc1c(F)c(N2CCC(N)C2)c2c3c1c(=O)c(C(=O)N1CCOCC1)cn3-c1cc3ccccc3cc1O2 (stereo not shown) [compound 239]
CN1CCN(CCCNC(=O)c2cn3c4c(c(N5CCC(N)C5)c(F)c(N)c4c2=O)Oc2cc4ccccc4cc2-3)CC1 (stereo not shown) [compound 240]
CCN(CC)CCCC(C)NC(=O)c1cn2c3c(c(N4CCC(NC(=O)OC(C)(C)C)C4)c(F)cc3c1=O)Oc1cc3ccccc3cc1-2 (stereo not shown) [compound 241]
CN(C)CCCNC(=O)c1cn2c3c(c(N4CCC(NC(=O)OC(C)(C)C)C4)c(F)cc3c1=O)Oc1cc3ccccc3cc1-2 (stereo not shown) [compound 242]
CC1CCN(CCCNC(=O)c2cn3c4c(c(N5CCC(NC(=O)OC(C)(C)C)C5)c(F)cc4c2=O)Oc2cc4ccccc4cc2-3)CC1 (stereo not shown) [compound 243]
NC1CCN(c2c(F)cc3c(=O)c(C(=O)NN4CCCCC4)cn4c3c2Oc2cc3ccccc3cc2-4)C1 (stereo not shown) [compound 244]
NC1CCN(c2c(F)cc3c(=O)c(C(=O)NC4CCN(Cc5ccccc5)CC4)cn4c3c2Oc2cc3ccccc3cc2-4)C1 (stereo not shown) [compound 245]
CN(C)CCCNC(=O)c1cn2c3c(c(N4CCC(N)C4)c(F)cc3c1=O)Oc1cc3ccccc3cc1-2 (stereo not shown) [compound 246]
NC1CCN(c2c(F)cc3c(=O)c(C(=O)NCc4ccccc4N4CCCCC4)cn4c3c2Oc2cc3ccccc3cc2-4)C1 (stereo not shown) [compound 247]
NC1CCN(c2c(F)cc3c(=O)c(C(=O)NCc4ccccc4N4CCOCC4)cn4c3c2Oc2cc3ccccc3cc2-4)C1 (stereo not shown) [compound 248]
NC1CCN(c2c(F)cc3c(=O)c(C(=O)N4CCCCC4CN4CCCC4)cn4c3c2Oc2cc3ccccc3cc2-4)C1 (stereo not shown) [compound 249]
CCN(CC)C(=O)C1CCCN(c2c(F)cc3c(=O)c(C(=O)NCCC4CCCN4C)cn4c3c2Oc2cc3ccccc3cc2-4)C1 (stereo not shown) [compound 250]
CN1CCCC1CCNC(=O)c1cn2c3c(c(NC(=O)C4CCCNC4)c(F)cc3c1=O)Oc1cc3ccccc3cc1-2 (stereo not shown) [compound 251]
CN1CCCC1CCNC(=O)c1cn2c3c(c(NCC4CCNCC4)c(F)cc3c1=O)Oc1cc3ccccc3cc1-2 (stereo not shown) [compound 252]
CN1CCCC1CCNC(=O)c1cn2c3c(c(/N=C4\CCCCN4)c(F)cc3c1=O)Oc1cc3ccccc3cc1-2 (stereo not shown) [compound 253]
CN1CCCC1CCNC(=O)c1cn2c3c(c(N4CCC(N5CCCCC5)CC4)c(F)cc3c1=O)Oc1cc3ccccc3cc1-2 (stereo not shown) [compound 254]
CCOC(=O)N1CCC(Nc2c(F)cc3c(=O)c(C(=O)NCCC4CCCN4C)cn4c3c2Oc2cc3ccccc3cc2-4)CC1 (stereo not shown) [compound 256]
CN1CCC(N(C)c2c(F)cc3c(=O)c(C(=O)NCCC4CCCN4C)cn4c3c2Oc2cc3ccccc3cc2-4)CC1 (stereo not shown) [compound 257]
CN1CCCC1CCNC(=O)c1cn2c3c(c(NC4CCN(Cc5ccccc5)CC4)c(F)cc3c1=O)Oc1cc3ccccc3cc1-2 (stereo not shown) [compound 258]
CC1CCCCN1CCCNc1c(F)cc2c(=O)c(C(=O)NCCC3CCCN3C)cn3c2c1Oc1cc2ccccc2cc1-3 (stereo not shown) [compound 259]
CN1CCCC1CCNC(=O)c1cn2c3c(c(N4CCC(C#N)(c5ccccc5)CC4)c(F)cc3c1=O)Oc1cc3ccccc3cc1-2 (stereo not shown) [compound 260]
CN1CCCC1CCNC(=O)c1cn2c3c(c(N4CCC(C(N)=O)CC4)c(F)cc3c1=O)Oc1cc3ccccc3cc1-2 (stereo not shown) [compound 261]
CN1CCCC1CCNC(=O)c1cn2c3c(c(N4CCC(NC(=O)OC(C)(C)C)CC4)c(F)cc3c1=O)Oc1cc3ccccc3cc1-2 (stereo not shown) [compound 262]
CN(CCCNc1c(F)cc2c(=O)c(C(=O)NCCC3CCCN3C)cn3c2c1Oc1cc2ccccc2cc1-3)c1ccccc1 (stereo not shown) [compound 263]
